In paper PMC12029992, “Beyond-Rule-of-Five Compounds Are Not Different: In Vitro–In Vivo Extrapolation of Female CD-1 Mouse Clearance Based on Merck Healthcare KGaA Compound Set” (Pharmaceuticals, 2025):

Experiments:
[1] = Determination of CLint in mouse microsomes (microsomal stability); type: in vitro ADME; conditions: female CD-1 mouse microsomes
Procedure: Microsomal stability was assessed on a liquid handling platform (Tecan Freedom EVO-2 200 MCA384, Männedorf, Switzerland) using pooled female CD-1 mouse microsomes. Compounds (1 µM final) were pre-incubated with microsomes (final 0.5 mg/mL) for 5 min at 37 °C in phosphate buffer (50 mM, pH 7.4), which was followed by the start of the incubation by the addition of cofactor NADPH (final 1.5 mM). […] Incubations were carried out in singlicate. Aliquots were taken at time points of 0, 5, 10, 20, and 30 min. Additionally, two control samples (0 and 30 min) lacking the addition of NADPH were included in order to flag compounds with non-microsomal metabolism. After incubation, the samples were quenched by adding sample aliquots from four different compound incubations to a two-fold volume of acetonitrile (ACN) for bioanalytical cocktailing designed to avoid analytical interference. After centrifugation, the supernatants were analyzed by a standard reversed-phase liquid chromatography assay coupled to tandem mass spectrometry (UHPLC-MS/MS) (for details, see the Supplementary Materials).
The data were subjected to post-acquisition analysis by the Analyst software (version 1.7.2), and the percentage of compound remaining (defined as the ratio of the peak area at a given time point and that at the 0 min time point) was plotted against the incubation time. The first-order elimination rate constant (kel) was derived by non-linear regression using Biorails version 5.10.22/Morphit version 8.0 (The Edge Software Consultancy, Guildford, UK), and CLint values (expressed in µL/min/mg) were obtained by normalizing kel with the microsome concentration.

female CD-1 mouse = assay: Pharmacokinetic studies in mice (IV clearance); type: in vivo; conditions: for in vivo obs. CL,b: blood clearance; for in vivo obs. CLint,b: blood intrinsic clearance; for in vivo obs. CLint,b,u: unbound blood intrinsic clearance
Procedure: Pharmacokinetic studies were carried out after approval by the internal animal welfare board and in compliance with the local and international animal welfare regulations similarly to a method described previously. Generally, three or twelve CD-1 mice per study were dosed intravenously (0.2–1 mg/kg) using solution vehicles, predominantly 40% PEG 200 in 1% DMSO. For the majority of the studies, blood samples were taken retro-orbitally under inhalation of anesthesia (0.1, 0.5, 1, 2, 4, 6, and 24 h). For the remaining studies, blood sampling was performed both retro-orbitally (0.1, 0.5, 1, 2, and 24 h) and from the saphenous vein (4 and 6 h) (N = 51), from the dorsal metatarsal vein (N = 34), or submandibularly (N = 12). Plasma was obtained by centrifugation (10,000× g; 4 °C; 5 min) and stored at −20 °C until UHPLC-MS/MS analysis. By the addition of an ACN solution containing internal standard, the proteins were precipitated and dissevered by centrifugation. The concentration of the respective molecules studied was determined by a standard UHPLC-MS/MS method (generic method similar to the method described for the determination of CLint using experimentally determined compound MS tuning parameters). Plasma concentrations were determined for each time point sampled. Clearance was estimated from the AUC by non-compartmental analysis, which was performed using WinNonlin® (Princeton, NJ, USA). The geometric mean was used when more than one clearance value from different studies was available.
CLp/Rb observed CLint,b=QH∗obs. CL,b/QH−obs. CL,b
All unbound clearance terms were calculated by dividing the respective clearance by fu,p. predicted/observed CL,b,u=pred./obs. CL,b/fu,p

SMILES | Microsome CLint [1] [µL/min/mg] | in vivo obs. CL,b (female CD-1 mouse) [mL/min/kg] | in vivo obs. CLint,b (female CD-1 mouse) [mL/min/kg] | in vivo obs. CLint,b,u (female CD-1 mouse) [mL/min/kg]
COc1cccc(OCCCN)c1-c1cc(Nc2cnc(C#N)cn2)n[nH]1 [MSC020] | 165.3 | 77.00 | 317.36 | 1652.94
O=C(O)c1cc(-c2ccc(F)cc2F)ccc1O [MSC001] | 17.8 | 2.83 | 2.91 | 170.57
N#Cc1c[nH]c2c(C(=O)N3CCN(CCc4ccc(F)cc4)CC3)cccc12 [MSC213] | 212.8 | 63.61 | 169.91 | 3658.76
CNC(=O)c1cc(Oc2ccc3nc(N[C@@H]4CCCC[C@H]4O)sc3c2)ccn1 [MSC003] | 20.5 | 6.38 | 6.81 | 89.15
